Data as given in US5877013A, “Rhodosporidium D-amino acid oxidase” (Food Industry Research and Development Institute, priority 1997, dated 1999).
Blank lines part the entries; values can stand above or below the molecule they belong to.

How the values were obtained:
R. toruloides DAO [1] = molecular target: T1, R. toruloides DAO (Rhodotorula toruloides, UniProt P80324); assay: activity of purified DAO on amino acid substrates and Ceph C (relative activity, apparent Km); type: biochemical; parameters: made in house; host or cells: R. toruloides cells (native source, not recombinant); details: for relative activity of the purified DAO on substrate / activity of the purified DAO on substrate: purified R. toruloides DAO
T1 sequence (P80324 25-368): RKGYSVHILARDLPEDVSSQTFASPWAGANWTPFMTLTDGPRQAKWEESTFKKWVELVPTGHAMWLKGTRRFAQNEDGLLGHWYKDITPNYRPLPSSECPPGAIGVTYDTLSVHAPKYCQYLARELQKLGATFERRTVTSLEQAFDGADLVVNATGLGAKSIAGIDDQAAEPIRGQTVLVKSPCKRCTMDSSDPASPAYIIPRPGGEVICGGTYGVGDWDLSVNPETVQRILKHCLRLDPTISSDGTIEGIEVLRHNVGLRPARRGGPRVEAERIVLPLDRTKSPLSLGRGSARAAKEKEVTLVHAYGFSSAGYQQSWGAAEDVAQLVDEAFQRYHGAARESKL

R. toruloides DAO [2] = molecular target: T1, R. toruloides DAO
R. toruloides DAO [3] = molecular target: T1, R. toruloides DAO; assay: biochemical
[4] = substrate: CSCC[C@@H](N)C(=O)O; assay: purified protein, by the assay type; details: other: purified R. toruloides DAO
[5] = substrate: C[C@@H](N)C(=O)O; assay: purified protein, by the assay type; details: other: purified R. toruloides DAO
[6] = substrate: N[C@H](CO)C(=O)O; assay: purified protein, by the assay type; type: biochemical; details: other: purified R. toruloides DAO
[7] = substrate: [H][C@]12SCC(COC(C)=O)=C(C(=O)O)N1C(=O)[C@H]2NC(=O)CCC[C@@H](N)C(=O)O; assay: purified protein, by the assay type; type: biochemical; details: other: purified R. toruloides DAO
[8] = substrate: N[C@H](Cc1c[nH]c2ccccc12)C(=O)O; assay: purified protein, by the assay type; type: biochemical; details: other: purified R. toruloides DAO

Molecule: CC(=O)OCC1=C(C(=O)O)N2C(=O)[C@@H](NC(=O)CCC[C@@H](N)C(=O)O)[C@H]2SC1 [Ceph C, cephalosporin C]
- activity on Ceph C as compared with activity against D-alanine (R. toruloides DAO [1]; purified DAO, SEQ ID NO: 3): 95%

- relative activity of the purified DAO on substrate (R. toruloides DAO [1]): < 20 % of maximal
Molecule: N[C@H](CC(=O)O)C(=O)O [D-aspartic acid]

- relative activity of the purified DAO on substrate (R. toruloides DAO [1]): < 20 % of maximal
Molecule: N[C@H](CCC(=O)O)C(=O)O [D-glutamic acid]

Molecule: NCCCC[C@@H](N)C(=O)O [D-lysine]
- relative activity of the purified DAO on substrate (R. toruloides DAO [1]): < 20 % of maximal

- relative activity of the purified DAO on substrate (R. toruloides DAO [1]): < 20 % of maximal
Molecule: C[C@H](O)[C@@H](N)C(=O)O [D-threonine]

- activity of the purified DAO on substrate (R. toruloides DAO [1]): best substrate
Molecule: N[C@H](Cc1c[nH]c2ccccc12)C(=O)O [D-tryptophan]

Molecule: C[C@H](N)C(=O)O [L-alanine]
- activity of the purified DAO on substrate (R. toruloides DAO [1]): No activity

Molecule: CSCC[C@H](N)C(=O)O [L-methionine]
- activity of the purified DAO on substrate (R. toruloides DAO [1]): No activity

- activity of the purified DAO on substrate (R. toruloides DAO [1]): No activity
Molecule: N[C@@H](Cc1ccccc1)C(=O)O [L-phenylalanine]

Molecule: O=C(O)[C@@H]1CCCN1 [L-proline]
- activity of the purified DAO on substrate (R. toruloides DAO [1]): No activity

Molecule: O=C(O)c1ccccc1 [benzoic acid]
- enzyme inhibited in the presence of aromatic acid (R. toruloides DAO [2]): 49%

Molecule: O=C(O)c1cccnc1 [nicotinic acid]
- enzyme inhibited in the presence of aromatic acid (R. toruloides DAO [2]): 21%

- Ki (R. toruloides DAO [3]): 300 µM
- enzyme inhibited in the presence of aromatic acid (R. toruloides DAO [2]): 72%
Molecule: Nc1ccc(C(=O)O)cc1 [p-aminobenzoic acid]

B1: R. toruloides DAO (Rhodotorula toruloides) (protein)
chain: T1 sequence (P80324 25-368)
notes: made in house; host or cells: R. toruloides cells (native source, not recombinant)
- Km [4]: 0.22 mM
- Km [5]: 0.68 mM
- Km [6]: 3.4 mM
- Km [7]: 0.65 mM
- Km [8]: 0.18 mM
